The record followed here is EPA's ToxValDB 9.5 (doi:10.2903/j.efsa.2018.5229).

Converted amounts (≈) assume the structure as drawn. A value given as a limit tells only on which side of the number the result lay.

The subject of data set [1] is Anas platyrhynchos. As to conditions: acute; oral; unspecified; mortality.
Data set [2] has as its system Daphnia magna. As to conditions: chronic/long-term; duration: 21 days; reproduction.
Data set [3] relates to Tagia sp. The conditions noted are these: chronic/long-term; reproduction.
Data set [4] concerns Apis mellifera. As to conditions: acute, mortality.
The subject of data set [5] is Oryctolagus sp. As to conditions: reproduction developmental; mortality.
Data set [6] relates to Rattus norvegicus. As to conditions: oral.
The subject of data set [7] is Canidae. The conditions noted are these: chronic; duration: 1 years; oral; Dog Other; body weight.
For data set [8], the system named is Ictalurus punctatus. The conditions noted are these: acute; duration: 96 hours; mortality.
Data set [9] has as its system Pimephales promelas. The conditions noted are these: chronic/long-term; duration: 35 days.
The subject of data set [10] is Colinus virginianus. As to conditions: reproduction developmental.
Data set [11] has as its system Chrysoperla externa. Nature of the data set: LR50; higher = less toxic. The conditions noted are these: not reported; mortality.
The subject of data set [12] is Typhlodromus pyri. Nature of the data set: LR50; higher = less toxic. The conditions noted are these: not reported; mortality.

For the molecule `CCOC(=O)C1CC(=O)C(=C(O)C2CC2)C(=O)C1` (centres undefined) [Trinexapac-ethyl], the LD50 in data set [1] is above 2000 mg/kg-day; in data set [4] (dermal), above 100 µg/piece; in data set [4] (oral, unspecified) it was above 83 µg/piece; in data set [6] (acute, mortality), 4210 mg/kg-day. Further, the results for the NOEC in [2], in data set [3] and in [9] were 2.4 mg/L, 81.9 mg/kg and 0.41 mg/L, respectively. Besides, the NOAEL in data set [5] is 60 mg/kg-day; in data set [6] (subchronic, duration: 90 days, body weight), at most 34 mg/kg-day; in data set [7] it was 32 mg/kg-day. The molecule further registered an LC50 in data set [8] of 35 mg/L (≈ 139 µM). The molecule further showed an NOEL in [10] of 17.6 mg/kg-day. Moreover, the values for the LR50 in [11] and in data set [12] were above 400 g/ha and above 15 g/ha, respectively.

As usually defined, the NOAEL is the highest dose or exposure tested at which no adverse effect was seen. As usually defined, the LC50 is the concentration lethal to half of the exposed cells or organisms.
